Where “and” joins values, the source holds several entries; their conditions need not be identical. Equal entries are not always repeated.
What was measured:
CYP2B6 = target: T1, CYP2B6 (Homo sapiens, UniProt P20813); assay: P450 inhibition in liver microsomes with probe substrates; assay type: in vitro ADME
T1 construct: from tissue; host or cells: liver microsomes
T1 sequence (P20813 1-491): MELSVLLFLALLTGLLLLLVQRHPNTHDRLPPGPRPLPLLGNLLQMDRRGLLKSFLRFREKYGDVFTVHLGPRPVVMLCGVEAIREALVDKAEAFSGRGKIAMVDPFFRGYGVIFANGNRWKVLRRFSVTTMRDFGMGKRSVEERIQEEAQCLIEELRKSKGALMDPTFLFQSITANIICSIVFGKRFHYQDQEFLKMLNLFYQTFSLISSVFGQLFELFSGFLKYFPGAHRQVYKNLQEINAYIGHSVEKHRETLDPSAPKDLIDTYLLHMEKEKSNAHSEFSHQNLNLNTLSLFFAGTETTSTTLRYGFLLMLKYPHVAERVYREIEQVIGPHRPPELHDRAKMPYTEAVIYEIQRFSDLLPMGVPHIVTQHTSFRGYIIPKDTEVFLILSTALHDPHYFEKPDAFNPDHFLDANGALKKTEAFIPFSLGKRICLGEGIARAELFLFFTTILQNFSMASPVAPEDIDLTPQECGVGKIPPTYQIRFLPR

[1] = tested on: de novo lipogenesis (DNL); assay: Suppression of DNL in healthy human volunteers; assay type: in vivo; conditions: dose-dependent
CYP3A = CYP3A (Homo sapiens, UniProt P08684); assay: in vitro; conditions: microsomes
CYP1A2 = target: T2, CYP1A2 (Homo sapiens, UniProt P05177); assay: biochemical
T2 sequence (P05177 1-516): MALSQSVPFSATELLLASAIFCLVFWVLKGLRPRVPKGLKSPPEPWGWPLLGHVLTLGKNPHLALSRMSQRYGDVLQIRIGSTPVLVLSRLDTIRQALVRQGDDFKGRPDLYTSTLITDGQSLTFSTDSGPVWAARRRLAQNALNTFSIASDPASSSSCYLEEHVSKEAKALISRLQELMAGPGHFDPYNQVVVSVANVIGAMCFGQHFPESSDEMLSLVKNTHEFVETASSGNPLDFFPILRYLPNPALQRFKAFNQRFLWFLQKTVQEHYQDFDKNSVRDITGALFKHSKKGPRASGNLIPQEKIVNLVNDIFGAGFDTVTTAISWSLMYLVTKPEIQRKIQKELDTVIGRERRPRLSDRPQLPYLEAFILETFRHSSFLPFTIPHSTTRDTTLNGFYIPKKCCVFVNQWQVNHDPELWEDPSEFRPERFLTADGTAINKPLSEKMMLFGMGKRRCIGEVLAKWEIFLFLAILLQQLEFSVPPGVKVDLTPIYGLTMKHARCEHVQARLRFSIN

CYP2C9 = target: T3, CYP2C9 (Homo sapiens, UniProt P11712); assay: P450 inhibition in liver microsomes with probe substrates; assay type: in vitro ADME
T3 construct: from tissue; host or cells: liver microsomes

CYP2C8 = target: T4, CYP2C8 (Homo sapiens, UniProt P10632); assay: as above; assay type: in vitro ADME
T4 construct: from tissue; host or cells: liver microsomes
T4 sequence (P10632 1-490): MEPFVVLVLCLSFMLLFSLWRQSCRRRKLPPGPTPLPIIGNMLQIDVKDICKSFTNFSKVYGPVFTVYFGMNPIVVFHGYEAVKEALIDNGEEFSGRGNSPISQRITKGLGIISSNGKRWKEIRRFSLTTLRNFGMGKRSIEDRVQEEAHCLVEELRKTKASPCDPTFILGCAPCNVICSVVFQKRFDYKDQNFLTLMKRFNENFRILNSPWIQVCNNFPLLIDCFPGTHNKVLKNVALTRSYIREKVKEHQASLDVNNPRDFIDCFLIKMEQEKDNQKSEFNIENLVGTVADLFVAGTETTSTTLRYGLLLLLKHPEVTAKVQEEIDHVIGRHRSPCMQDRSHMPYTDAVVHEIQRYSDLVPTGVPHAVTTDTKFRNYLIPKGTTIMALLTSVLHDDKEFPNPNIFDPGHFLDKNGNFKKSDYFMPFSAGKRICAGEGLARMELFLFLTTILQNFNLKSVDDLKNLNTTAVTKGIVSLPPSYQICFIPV

clinical = conditions: human, in vivo, po
sebum production = assay: Effect on sebum levels in healthy human volunteers (Sebumeter, Sebutape lipid classes); assay type: in vivo; conditions: 200 mg BID oral, 14 days
Protocol: Otherwise healthy overweight or obese subjects were admitted to the Clinical Research Institute and dosed orally with Example 1 (200 mg BID) or placebo for 14 consecutive days. On two days pre-treatment and days 13 and 14 (post-treatment) of the study, sebum production was assessed by Sebumeter® measurements and sebum was collected for lipid component identification and quantification. In order to prepare the area of the skin where the Sebumeter® measurements and the sebum collection will be performed, the skin surface has to be cleansed from any lipids and debris. The targeted area on the forehead and the cheeks were gently blotted using an oil-absorbing tissue or gauze. After blotting, wipes or gauze pads presoaked in 70% ethanol solution were used to wipe the forehead and cheeks. Following cleansing, the skin was allowed to dry and sebum measurements were made using a clean, calibrated Sebumeter® SM 815 (Courage+Khazaka, Köln, Germany) in accordance with the manufactures directions at 5 minutes and 3 hours post-cleansing. Sebum levels determined by Sebumeter® are expressed as relative change from pre-treatment baseline for subjects treated with placebo and Example 1 and are presented in FIG. 4. The Sebutape® technique was used for sebum collection. At approximately 9 AM, following facial cleansing and the 5 minute post-cleanse sebumeter measurement, 4 Sebutape® strips were applied: 2 patches placed right and left on the forehead cranial of the middle line of the eye and 2 patches on the cheeks caudal of the middle line of the eye. The Sebutape® was peeled from its backing paper using defatted forceps and affixed to the surface with gentle pressure to assure adequate adhesion. Surgical gloves were to be worn by the person handling the tape. After 1 hour, the 4 patches were removed; the 2 left patches and the 2 right patches were placed in acid-washed, Teflon-capped screw-cap vials. Sebum lipid species were quantified from the Sebutape® samples by Metabolon using their TrueMass® technology platform. Analysis of these sebum samples enabled assessment of the effect of Example 1 vs. placebo on individual sebum lipid classes. […] Individual subject level and box plots depicting means with confidence intervals are shown for sebum triglycerides, wax esters, and free fatty acids (FIG. 5).

[2] = target: T5, recombinant human ACC1 (rhACC1) (Homo sapiens, UniProt Q13085, DEL44-44); assay: Transcreener ADP detection FP assay, recombinant human ACC1 inhibition; assay type: biochemical; conditions: recombinant human ACC1, 50 μM ATP; read-out: Transcreener Assay hACC1 IC50
T5 construct: His6 (N); made in house; host or cells: SF9 insect cells (baculovirus)

[3] = in vivo

Sequence of CYP3A (P08684 2-503): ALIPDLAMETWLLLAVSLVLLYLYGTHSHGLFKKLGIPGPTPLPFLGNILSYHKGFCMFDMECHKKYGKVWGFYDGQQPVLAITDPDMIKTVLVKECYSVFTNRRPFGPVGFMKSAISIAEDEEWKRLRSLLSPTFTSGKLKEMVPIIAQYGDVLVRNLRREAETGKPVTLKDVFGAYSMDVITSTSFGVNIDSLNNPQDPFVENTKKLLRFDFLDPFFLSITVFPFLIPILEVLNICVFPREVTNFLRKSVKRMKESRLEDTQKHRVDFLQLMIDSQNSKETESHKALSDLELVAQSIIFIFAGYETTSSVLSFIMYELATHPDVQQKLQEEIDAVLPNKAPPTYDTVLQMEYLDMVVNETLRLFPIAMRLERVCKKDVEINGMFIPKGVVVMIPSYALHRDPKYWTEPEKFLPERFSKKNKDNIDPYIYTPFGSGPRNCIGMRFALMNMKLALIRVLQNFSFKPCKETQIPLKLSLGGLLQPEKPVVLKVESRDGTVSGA
T3 sequence (P11712 whole entry): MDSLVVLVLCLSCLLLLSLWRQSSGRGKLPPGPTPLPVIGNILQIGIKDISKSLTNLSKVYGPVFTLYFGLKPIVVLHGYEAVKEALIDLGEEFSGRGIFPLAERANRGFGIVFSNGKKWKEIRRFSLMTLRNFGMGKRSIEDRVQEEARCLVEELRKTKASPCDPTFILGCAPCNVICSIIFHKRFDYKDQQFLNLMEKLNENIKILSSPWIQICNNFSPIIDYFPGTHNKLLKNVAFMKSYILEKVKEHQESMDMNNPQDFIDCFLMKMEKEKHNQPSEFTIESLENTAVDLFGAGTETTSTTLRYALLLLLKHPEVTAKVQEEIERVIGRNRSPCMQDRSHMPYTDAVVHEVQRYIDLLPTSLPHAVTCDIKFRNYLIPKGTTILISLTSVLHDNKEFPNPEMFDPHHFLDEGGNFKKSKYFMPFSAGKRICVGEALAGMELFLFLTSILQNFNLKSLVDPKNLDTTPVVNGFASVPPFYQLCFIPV

Cc1nc2ccc(C(=O)N3CCC4(CC3)CC(=O)c3c(cnn3C(C)C)C4)cc2[nH]1 [Example 1, 1-isopropyl-1′-(2-methyl-1H-benzo[d]imidazole-5-carbonyl)-4,6-dihydrospiro[indazole-5,4′-piperidin]-7(1H)-one]
IC50 (CYP2B6): > 30 µM
suppression of DNL in healthy human volunteers [1]: up to 80%
IC50 (CYP3A): > 30 µM
IC50 (CYP1A2): > 30 µM
IC50 (CYP2C9): > 30 µM
IC50 (CYP2C8): > 30 µM
half-life (clinical): 10 to 13 h
sebum free cholesterol change relative to PBO (sebum production): no change
sebum squalene levels, increase relative to PBO (sebum production): 2.6 fold
reduction of sebum production by Sebumeter from baseline (sebum production; PBO adjusted): 49% and > 49%
reduction of sebum free fatty acids relative to placebo (sebum production; Sebutape): approximately 49%
reduction of sebum wax esters relative to placebo (sebum production; Sebutape): ~53%
decrease of sebum triglycerides (sebum production; Sebutape, PBO adjusted): 66%
levels of sebum free fatty acids (in words) (sebum production; vs. placebo): reduced
levels of sebum wax esters (in words) (sebum production; vs. placebo): reduced
IC50 [2]: 0.098 µM
exposures (AUC and Cmax) vs. dose [3]: increased dose-proportionally
effect of food on absorption ([3]; po): modestly decreased the rate but not the extent
frequency of adverse events vs. dose and duration ([3]; po): no dose- or duration-related increase

Reference: patent US20160220557A1, “USE OF ACETYL-COA CARBOXYLASE INHIBITORS FOR TREATING ACNE VULGARIS” (PFIZER INC., priority 2013, published 2016)
